Experiments:
Assay type in all cases: biochemical
[1] = system: β-N-acetylglucosaminidase (from bovine epididymis); test: β-N-acetylglucosaminidase inhibition (Test Example 2); details: for inhibition of N-acetylglucosaminidase, in words: summary of Table 1; for 50% inhibiory concentration (IC50) Enzyme B: β-N-acetylglucosaminidase from bovine epididymis, substrate p-nitrophenyl-N-acetyl-β-D-glucosaminide
Procedure: (§1) Thus, 0.5 mL of 0.025M citrate-phosphate buffer (pH 4.0), 0.1 mL of the same buffer containing 10 mM p-nitro-phenyl-N-acetyl-α-D-galactosaminide dissolved therein, and 0.1 mL of either water or an aqueous solution containing as the test compound any one of the compounds of the formulae (I), (V) and (X) according to this invention were mixed with each other and pre-incubated in a 96-wells titer plate at 37° C. for 10 minutes. After the completion of the pre-incubation, to the pre-incubated mixture was added 0.01 mL of 0.025 M citrate-phosphate buffer containing α-N-acetyl-galactosaminidase originated from chicken liver (a product of Sigma Company) which was dissolved in said buffer as a glycosidase to be tested. Thereafter, the enzymatic reaction was conducted at 37° C. for 30 minutes.
(§2) After the enzymatic reaction, to the reaction solution was added 1.0 mL of 0.3M glycine—sodium hydroxide buffer (pH 10.5), in order to terminate the enzymatic reaction. Thereafter, the absorbance [designated as value (a)] of light at 405 nm of the resulting reaction solution was measured. Concurrently, measurement was made of the absorbance [designated as value (b)] at 405 nm of the reaction solution as obtained in the control test where the enzymatic reaction was conducted without addition of the test compound. Further, measurements were made of the absorbance [designated as values (a′)] and the absorbance [[designated as values (b′)] at 405 nm of the solutions as obtained in the blank test and the control test, respectively, where the enzymatic reaction was not conducted in the assay test. The rate of inhibition to […] was calculated by the equation: [1-(a-a′)/(b-b′)]×100.
(§3) The test results obtained are summarized as IC50 value in Table 1 below.
This Test Example is a test example for determining the N-acetylglucosaminidase-inhibitory activity of the compound of the formula (I), (V) or (X) according to this invention.
The evaluation of the N-acetylglucosaminidase-inhibitory activity was conducted according to a modification of the method described in the “Methods in Enzymology”, 28, p.772 (1972).
Namely, the test was conducted in the same manner as the test for the N-acetylgalactosamnidase-inhibitory activity as described above, but with using […] (a product of Sigma Company) originated from bovine epididymis, as the glycosidase enzyme to be tested, and with using p-nitrophenyl-N-acetyl-β-D-glucosaminide as the substrate. Furthermore, absorbances of light at 405 nm were measured in the same manner as described in […]. IC50 value of the test compound capable of giving the 50% inhibition to β-N-acetyl-glucosaminidase was calculated.

[2] = target: T1, α-D-mannosidase (from jack bean) (Canavalia ensiformis, UniProt C0HJB3); test: α-mannosidase inhibition (Test Example 5); details: for IC50: α-D-mannosidase from jack bean, substrate p-nitrophenyl-α-D-mannoside, sodium acetate buffer pH 4.5, read-out: 50% inhibiory concentration (IC50) Enzyme G (converted); for inhibition of α-D-mannosidase, in words: summary of Table 1
T1 sequence (C0HJB3 1-981): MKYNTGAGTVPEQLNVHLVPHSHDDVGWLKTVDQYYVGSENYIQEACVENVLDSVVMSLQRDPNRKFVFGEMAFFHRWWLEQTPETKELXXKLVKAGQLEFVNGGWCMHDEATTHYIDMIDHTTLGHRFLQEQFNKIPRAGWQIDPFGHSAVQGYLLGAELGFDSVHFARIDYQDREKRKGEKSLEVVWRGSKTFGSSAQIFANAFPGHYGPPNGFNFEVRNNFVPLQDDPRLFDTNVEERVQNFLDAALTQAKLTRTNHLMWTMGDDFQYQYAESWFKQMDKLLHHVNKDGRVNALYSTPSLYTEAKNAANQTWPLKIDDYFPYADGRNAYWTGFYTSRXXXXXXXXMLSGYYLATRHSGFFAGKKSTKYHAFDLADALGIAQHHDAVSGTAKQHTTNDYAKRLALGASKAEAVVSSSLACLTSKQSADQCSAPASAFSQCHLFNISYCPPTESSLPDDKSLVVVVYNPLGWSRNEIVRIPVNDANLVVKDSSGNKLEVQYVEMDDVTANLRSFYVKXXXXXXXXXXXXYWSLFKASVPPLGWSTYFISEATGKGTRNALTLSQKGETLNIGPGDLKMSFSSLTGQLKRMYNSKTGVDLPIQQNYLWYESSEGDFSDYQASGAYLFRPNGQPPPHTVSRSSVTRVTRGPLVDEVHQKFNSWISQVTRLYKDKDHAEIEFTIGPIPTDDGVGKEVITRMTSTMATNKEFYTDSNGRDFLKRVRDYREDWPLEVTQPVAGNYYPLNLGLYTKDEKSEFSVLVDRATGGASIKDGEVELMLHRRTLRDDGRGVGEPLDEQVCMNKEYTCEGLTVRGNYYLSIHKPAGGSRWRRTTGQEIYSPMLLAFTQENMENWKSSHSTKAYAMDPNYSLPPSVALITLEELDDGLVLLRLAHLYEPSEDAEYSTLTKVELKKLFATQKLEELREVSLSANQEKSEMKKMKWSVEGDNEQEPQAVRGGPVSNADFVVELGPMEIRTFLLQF
Procedure: as §1, §2, §3
This Test Example is a test example for determining the α-mannosidase or β-mannosidase-inhibitory activity of the compounds according to this invention.
The evaluation of the β-mannosidase-inhibitory activity was conducted according to a modification of the method described in the “Journal of Biological Chemistry”, 242, p.5474 (1967).
Namely, the test was conducted in the same manner as the test for the enzyme-inhibitory activity test described in Test Example 1, but with using α-mannosidase from jack bean or β-mannosidase from snail (both enzymes are products of Sigma Company) as the glycosidase enzyme, with using 0.05 M sodium acetate—acetate buffer (pH 4.5) as the buffer, and with using p-nitrophenyl-α-D-mannoside or p-nitrophenyl-β-D-mannoside as the substrate. Furthermore, absorbances of light were measured in the same manner as in Test Example 1. IC50 values of the test compound capable of giving the 50% inhibition to the enzymes were calculated.

[3] = system: β-D-glucosidase (from almond); test: β-glucosidase inhibition (Test Example 4); details: for inhibition of β-D-glucosidase, in words: summary of Table 1; for 50% inhibiory concentration (IC50) Enzyme E: β-D-glucosidase from almond, substrate p-nitrophenyl-β-D-glucoside
Procedure: as §1, §2, §3
This Test Example is a test example for determining the α-glucosidase or β-glucosidase-inhibitory activity of the compound of the formula (I), (V) or (X) according to this invention.
The evaluation of the β-glucosidase-inhibitory activity was conducted according to a modification of the method described in the “Agricultural and Biological Chemistry”, 26, p.203 (1962).
Namely, the test was conducted in the same manner as the test for the enzyme-inhibitory activity described in Test Example 1, but with using α-glucosidase originated from yeast or β-glucosidase originated from almond (both enzymes are products of Sigma Company) as the glycosidase enzyme, and with using p-nitro-phenyl-α-D-glucoside or p-nitrophenyl-β-D-glucoside as the substrate. Furthermore, absorbances of light were measured in the same manner as in Test Example 1, and IC50 values of the test compound capable of giving the 50% inhibition to the enzyme were calculated.

Compound | inhibition of N-acetylglucosaminidase, in words [1] | 50% inhibiory concentration (IC50) Enzyme B [1] [µg/mL] | IC50 [2] [µM] | inhibition of β-D-glucosidase, in words [3] | 50% inhibiory concentration (IC50) Enzyme E [3] [µg/mL] | inhibition of α-D-mannosidase, in words [2]
O=C(N[C@H]1NC[C@H](CO)[C@H](O)[C@@H]1O)C(F)(F)F [Formula (I), 6-deacetamido-3-decarboxy-3-hydroxymethyl-6-trifluoroacetamido-siastain B] | inhibit strongly | 22 | > 387 | inhibit strongly | 0.14 | –
CC(=O)NC1NCC(CO)C(O)C1O (stereo not drawn) [Formula (V), 3-decarboxy-4-epi-3-hydroxymethyl-siastain B] | inhibit strongly | 3 | 318 | inhibit strongly | 1.4 | inhibit strongly
O=C(N[C@H]1NC[C@H](CO)[C@@H](O)[C@@H]1O)C(F)(F)F [Formula (X), 6-deacetamido-3-decarboxy-4-epi-3-hydroxymethyl-6-trifluoroacetamido-siastain B] | – | >100 | 2.9 | inhibit strongly | 0.13 | inhibit strongly

Source: patent publication US6852735B1, “Siastatin B derivatives having a glycosidase inhibitory activity and processes for producing the same” (Zaidan Hojin Biseibutsu Kagaku Kenkyu Kai, priority 1998, dated 2005)
